Source: patent publication US20150238637A1, “Blood-brain Barrier Epitopes and Uses Thereof” (NATIONAL RESEARCH COUNCIL OF CANADA, priority 2005, published 2015)

How the values were obtained:
[1] = tested on: HCEC monolayers; assay: Transport across the in vitro blood brain barrier model; assay type: cell-based, human; conditions: for effect on FC5 transport across the in vitro BBB model: 30 minutes preincubation
Description: HCEC (80,000 cells/membrane) were seeded on a 0.5% gelatin coated Falcon tissue culture inserts (pore size-1 μm; surface area 0.83 cm^2) in 1 ml of growth medium. The bottom chamber of the insert assembly contained 2 ml of growth medium supplemented with the fetal human astrocyte-conditioned medium in a 1:1 (v/v) ratio (Muruganandam et al., 1997).
Transport studies were performed 7 days post-seeding as described previously (Muruganandam et al., 1997; Muruganandam et al., 2002). Filter inserts were rinsed with transport buffer [phosphate buffered saline (PBS) containing 5 mM glucose, 5 mM MgCl2, 10 mM HEPES, 0.05% bovine serum albumin (BSA), pH 7.4] and allowed to equilibrate at 37° C. for 30 minutes. Experiments were initiated by adding 10 μg/ml FC5 to either apical or basolateral side of inserts containing either 0.5% gelatin-coated inserts without cells, control HCEC or HCEC pre-exposed to various pharmacological modulators for 30 min. Transport studies were conducted at 37° C. with plates positioned on a rotating platform stirring at 30-40 rpm. Aliquots (100 μl) were collected from the opposite chamber at various time intervals (5, 15, 30, 60, 90 minutes) and replaced with fresh buffer. The amount of FC5 transported across empty inserts or HCEC monolayers was determined by enzyme linked immunosorbent assay (ELISA) (see below). To control for HCEC membrane integrity and to estimate paracellular diffusion, the apical-to-basolateral and basolateral-to-apical clearance rates of [^14C]-sucrose were determined and calculated essentially as described previously (Muruganandam et al., 2002; Garberg et al., 2005) across the same monolayers used for FC5 transport studies. Sample-associated radioactivity in 50 μl aliquots was measured using a Mircobeta Trilux liquid scintillation counter (Wallac, Finland).
Clearance was calculated as Cl (ml)=CA/CI×VA, where CI is the initial tracer or sdAb concentration in the donor chamber, CA is the tracer or sdAb concentration in the accepter chamber, and VA is the volume of the acceptor chamber. […] The effects of pharmacological agents on FC5 transmigration was subsequently assessed at 30 min.
To measure the amount of FC5 transmigrated across the in vitro BBB model, 50 μl aliquots collected from the appropriate compartment were immobilized overnight at room temperature in a HisGrab nickel coated 96-well plate (Pierce). After blocking the plates with 2% BSA for 2 hours at room temperature, anti-c-Myc monoclonal antibody conjugated to HRP was added at a dilution of 1:5000 for 1 hour. After washing, the bound FC5 was detected with tetramethylbenzidine (TMB)/hydrogen peroxide substrate system. The signal was measured at […] on a microtiter plate reader. FC5 concentrations in collected aliquots were determined from a standard curve constructed using known FC5 concentrations.

[2] = tested on: HCEC; assay: Uptake into human cerebromicrovascular endothelial cells (immunofluorescence); assay type: cell-based; conditions: data not shown; for effect on FC5 uptake into HCEC: 30 minutes preincubation
Description: The uptake of FC5 into HCEC was tested 15-90 minutes after adding 5 μg/ml of FC5 in the absence or presence of various pharmacological modulators of endocytosis. To visualize the intracellular distribution of FC5, cells were fixed, permeabilized and probed with the anti-c-myc antibody (1:100; 1 hour) followed by incubation with FITC-labeled anti-mouse IgG (1:250; 1 hour).

[3] = 5 μg/ml, 30 minutes pretreatment

Q: Which “effect on FC5 transmigration” value ([1]; 5 mM sodium azide and 5 mM 2-deoxyglucose together, 30 min, glucose-free medium) does the source give for `O=CC[C@@H](O)[C@H](O)[C@H](O)CO` [2-deoxyglucose] here?
A: near-complete inhibition

Q: `CN(C)CCCn1cc(C2=C(c3c[nH]c4ccccc34)C(=O)NC2=O)c2ccccc21` [BIM-1, bisindolyl-maleimide-1] was tested. Which “reduction of FC5 transcytosis across HCEC” value ([1]; BIM-1 5 μM, 30 minutes pre-incubation) did it give?
A: 25%

Q: With `CC[C@@]1([C@@H]2O[C@@H]([C@H]3O[C@@](O)(CO)[C@H](C)C[C@@H]3C)C[C@@H]2C)CC[C@H]([C@]2(C)CC[C@]3(C[C@H](O)[C@@H](C)[C@@H]([C@@H](C)[C@@H](OC)[C@H](C)C(=O)O)O3)O2)O1` [Monensin, monensin] as the molecule, how does the inhibition at 25 µM ([1]; Homo sapiens, HCEC, 0.5 h, monensin 25 μM, 30 minutes, 10 μg/ml FC5, read-out: inhibition of FC5 transcytosis across HCEC) read?
A: 34%

Q: Which “effect on transendothelial migration of FC5” value ([1]; amiloride 500 μM) does the source give for `N=C(N)NC(=O)c1nc(Cl)c(N)nc1N` [amiloride] here?
A: no effect

Q: `CN(C)CCCN1c2ccccc2Sc2ccc(Cl)cc21` [chlorpromazine] was tested. Which inhibition at 50 µg/mL ([1]; Homo sapiens, HCEC, chlorpromazine 50 μg/ml, 30 minutes pretreatment, read-out: inhibition of FC5 transmigration across in vitro BBB model) did it give?
A: 52%

Q: For `CCCC(=O)Nc1ncnc2c1ncn2[C@@H]1O[C@@H]2COP(=O)(O)O[C@H]2[C@H]1OC(=O)CCC` [db-cAMP, dibutyryl-cAMP], which “effect on FC5 transcytosis across HCEC” value ([1]; db-cAMP 500 μM, 30 minutes pre-incubation) is on record?
A: not affected

Q: How did the “effect on FC5 transmigration across in vitro BBB model” value (“effect on FC5 transmigration across” for short) [1, 3] turn out when `CCCCC[C@@H](O)[C@H]1C(=O)O[C@H](C)[C@@H](O)/C=C/C=C/C=C/C=C/C=C(\C)[C@@H](O)C[C@H](O)C[C@H](O)C[C@H](O)C[C@H](O)C[C@H](O)C[C@@H]1O` [filipin] was run?
A: None of the caveolae-mediated endocytosis inhibitors tested affected

Q: Which “effect on FC5 transcytosis across HCEC” value ([1]; genistein 50 μM, 30 minutes pre-incubation) does the source give for `O=c1c(-c2ccc(O)cc2)coc2cc(O)cc(O)c12` [genistein] here?
A: not affected

Q: Which “effect on FC5 transcytosis” value ([1]; 20 μM, 30 minutes pre-incubation) does the source give for `COC(=O)Nc1nc2ccc(C(=O)c3cccs3)cc2[nH]1` [nocodazole] here?
A: did not interfere

Q: For `C[C@@H]1[C@H](O)[C@@H](C)/C=C/C=C/CC/C=C/C=C/C=C/C=C/C(O[C@H]2O[C@H](C)[C@@H](O)[C@H](N)[C@@H]2O)CC2O[C@](O)(CC(O)C(O)CCC(O)CC(O)CC(O)CC(=O)O[C@H]1C)CC(O)C2C(=O)O` (stereo partly shown) [nystatin], which “effect on FC5 transmigration across” value [1, 3] is on record?
A: None of the caveolae-mediated endocytosis inhibitors tested affected

Q: How did the “reduction of FC5 transport across HCEC” value ([1]; ouabain 1 μM, 30 minutes pretreatment) turn out when `C[C@@H]1O[C@@H](O[C@H]2C[C@@H](O)[C@]3(CO)[C@H]4[C@H](O)C[C@]5(C)[C@@H](C6=CC(=O)OC6)CC[C@]5(O)[C@@H]4CC[C@]3(O)C2)[C@H](O)[C@H](O)[C@H]1O` [ouabain] was run?
A: 40%

Q: How did the “effect on FC5 transcytosis across the BBB in vitro” value ([1]; 10 μg/ml pre-incubation) turn out when chondroitin sulfate A was run?
A: did not affect

Q: With chondroitin sulfate C as the molecule, how does the “effect on FC5 transcytosis across the BBB in vitro” value ([1]; 10 μg/ml pre-incubation) read?
A: did not affect

Q: With heparin sulfate as the molecule, how does the “effect on FC5 transcytosis across the BBB in vitro” value ([1]; heparin sulfate 50 U/ml pre-incubation) read?
A: did not affect

Q: What does the source list for holo-transferrin?
A: effect on FC5 transendothelial transport ([1]; 100-fold excess (1 mg/ml) of holo-transferrin, 10 μg/ml FC5, 30 minutes): not reduced; effect on FC5 uptake ([2]; 100-fold excess of holo-transferrin): not reduced

Q: For mannan, which “effect on FC5 transmigration” value ([1]; mannan 1 mg/ml) is on record?
A: did not affect

Q: For methyl-β-cyclodextrin, which “effect on FC5 transmigration across” value ([1]; methyl-β-cyclodextrin 5 mM, 30 minutes pretreatment) is on record?
A: None of the caveolae-mediated endocytosis inhibitors tested affected

Q: With poly-L-lysine as the molecule, how does the “effect on FC5 transport across the in vitro BBB model” value ([1]; poly-L-lysine 300 μM) read?
A: Neither compound affected

Q: And the “effect on FC5 uptake into HCEC” value ([2]; poly-L-lysine 300 μM)?
A: Neither compound affected

Q: How did the “effect on FC5 transport across the in vitro BBB model” value ([1]; protamine sulfate 40 μg/ml) turn out when protamine sulfate was run?
A: Neither compound affected

Q: What about the “effect on FC5 uptake into HCEC” value ([2]; protamine sulfate 40 μg/ml) of the same molecule?
A: Neither compound affected
